Data from US9958452B2, “Highly fluorogenic protein labelling agents” (UNIVERSITY OF OTTAWA, priority 2015, dated 2018).

What was measured:
[1] = test system: MBP-dC10α; assay: Fluorescence enhancement of fluorogen after labelling of test protein MBP-dC10α; format: biochemical; conditions: for fluorescence enhancement after reaction with MBP-dC10α: 25 μM fluorogen + 25 μM MBP-dC10α, overnight at 37° C., ratio of intensity at emission maximum; for background (latent) fluorescence of the unreacted fluorogen: 25 μM fluorogen without MBP-dC10α, 50 mM HEPES pH 7.4, 5% DMSO
Description: 3. Determination of Fluorescence Properties of Fluorogens, Fluorescence Changes after Labelling of Target Protein, Selectivity Over Other Thiols, and Fluorescence Enhancement Ratios.
(§1) Emission spectra and fluorescence intensity measurements were recorded at 37° C. with a Synergy H4 Hybrid Multi-Mode Microplate Reader with excitation and emission monochromators set at 9 nm bandpass. Concentrations of 2.5, 5, 12.5, 20, and 25 μM of MBP-dC10α were reacted with 25 μM YC23. The mixture of 25 μM solution of YC23 and 2.5, 5, 12.5 20, or 25 μM MBP-dC10α in 50 mM HEPES buffer (pH 7.4) with 5% DMSO was incubated at 37° C. in the dark for overnight after which the fluorescence emission spectrum was recorded (λex=480 nm). The emission spectra of YC23 in the same solution without MBP-dC10α were also recorded. The ratio of fluorescence intensity at maximum emission gave the fluorescence enhancement ratio. Selectivity tests were done with same protocol but with different concentrations of thiols. The mixture of 25 μM solution of YC28 or YC29 and 25 μM MBP-dC10α in 50 mM HEPES buffer (pH 7.4) with 5% DMSO was incubated at 37° C. in the dark for overnight after which the fluorescence emission spectrum was recorded. The emission spectra of YC28 or YC29 in the same solution without MBP-dC10α were also recorded. The ratio of fluorescence intensity at maximum emission gave the fluorescence enhancement ratio. λex for YC28 is 540 nm and λex for YC29 is 580 nm. Excitation and emission spectra were obtained for 25 μM of MBP-dC10α labelled with one equivalent of YC23 (FIG. 10), YC28 (FIG. 11a) or YC29 (FIG. 11b).

[2] = test system: MBP-dC10α; assay: Time-dependent fluorescence increase for kinetic studies with MBP-dC10α; format: biochemical
Description: 4. Time-Dependent Fluorescence Increase for Kinetic Studies.
Protein labelling kinetics were studied by following the time-dependent fluorescence increase at 37° C. using a Synergy H4 Hybrid Multi-Mode Microplate Reader with excitation and emission monochromators set at a 9-nm bandpass. The reaction was prepared in 50 mM HEPES buffer (pH 7.4) with 5% DMSO. Solutions of MBP-dC10α were prepared in a 96-well plate and labelling reagent YC23, YC28 or YC29 in DMSO was added immediately before recording. The final concentrations of YC23, YC28, YC29 and of MBP-dC10α were all 25 μM in 50 mM HEPES buffer (pH 7.4) with 5% DMSO. Samples were excited at 495 nm (YC23), 540 nm (YC28) or 580 nm (YC29) and fluorescence intensity was followed at 525 nm (YC23), 590 nm (YC28) or 630 nm (YC29) as a function of time.

[3] = Time-dependent fluorescence increase with excess glutathione; format: biochemical
[4] = test system: histone-H2B-dC10α in HEK293T cells; assay: Cellular labelling with confocal fluorescence microscopy; format: cell-based, Human; conditions: for fluorescence in cells transfected with histone-H2B-dC10α / fluorescence in negative-control cells (pcDNA / mock DNA): HEK293T, 10 μM fluorogen; for fluorescence in cells transfected with histone-H2B-dC10α: 30 min (YC23) or 45 min (YC29); for fluorescence in negative-control cells (pcDNA / mock DNA): same conditions
Description: HEK 293T cells were plated into 60-mm dishes and grown in MEM supplemented with 10% FBS, 100 units/mL of penicillin and 100 μg/mL of streptomycin for 16 h before transfection. Cells were transiently transfected with histone H2B-dC10α or pcDNA3.1 (mock) using lipofectamine 2000 following the manufacturer's instructions. […] Cells were observed and imaged on a Nikon confocal microscope with a 25× objective. Images were taken and analyzed with NIS-Elements software.

[5] = test system: MBP-dC10α; assay: Excitation and emission spectra of fluorogen-labelled MBP-dC10α; format: physicochemical; conditions: 25 μM MBP-dC10α labelled with one equivalent of fluorogen
Description: as §1

[6] = Selectivity over other thiols, overnight incubation; format: biochemical; conditions: 25 μM YC23 overnight; 250 μM Cys and Hcy, 1 mM GSH vs 25 μM MBP-dC10α
Description: The selectivity of fluorogen YC23 was tested by incubating it overnight in the presence of MBP-dC10α or other intracellular thiols.
as §1, with “Excitation and emission spectra were obtained for 25 μM of MBP-dC10α labelled with one equivalent of YC23 (FIG. 10), YC28 (FIG. 11a) or YC29 (FIG. 11b).” left out

[7] = test system: MBP-dC10α; assay: Labelling of MBP-dC10α, purified and in bacterial lysate, analysed by SDS-PAGE after heat denaturation; format: biochemical, Escherichia coli
Description: 10% SDS-PAGE gels developed by (A) fluorescence (λex=491 nm, λem=508 nm) and (B) Coomassie staining are shown. Lane 1: molecular weight markers. Lanes 2-3: Purified MBP-[…]α, concentrated to 50 μM and (lane 3) labelled with 50 μM YC23, prior to 10-fold dilution and loading. Lanes 4-6: Soluble lysate of bacteria expressing MBP-[…]α, treated with 10, 50, or 100 μM YC23 respectively and 0.5 mM TCEP overnight, prior to loading. The thiol addition reaction of a maleimide group typically results in the formation of robust covalent bonds, which should be stable under conditions in which the labelled protein may itself undergo denaturation. To test this hypothesis, we expressed MBP-[…]α in Escherichia coli and used YC23 to label the test protein in bacterial lysate as well as the purified test protein. These samples were then heated to 95° C. for 15 min, prior to analysis by SDS-PAGE. […] Furthermore, as shown in lanes 4-6, as little as 10 μM of YC23 was sufficient to label the test protein, in the complex biological mixture of cell lysate.

[8] = test system: HEK293T cells; assay: MTT assay cytotoxicity; format: cell-based, Human; conditions: up to 100 μM, 20 hours
Description: 3-(4,5-Dimethylthiazol-2-yl)-2,5-diphenyl tetrazolium bromide (MTT) is a yellow tetrazolium salt and can be reduced to formazan crystals, which are insoluble in aqueous solutions, by active mitochondria in living cells. The resulting intracellular purple formazan can be dissolved in Triton X100, and therefore quantified by measuring absorption of the solution.
Cells were seeded in a 96-well plate and incubated with 100 μL of culture medium with different amounts of the fluorogen YCx for 20 h. No fluorogen was added to the positive control and no cells were plated in the negative control. Portions of 25 μL of MTT solution (5 mg in 1 mL of Hanks' balanced salt solution) were added to the wells and the cells were further incubated at 37° C. for 4 h. Solubilization solutions (100 μL) were then added and incubated in 96-well plates at room temperature in the dark overnight. The absorption of each well was measured using a plate reader at a wavelength of 570 nm with 690 nm as a reference. Cell viability was calculated according to the following equation: Cell viability=(Awith fluorogen−Anegative control)/(Apositive control−Anegative control)×100%

Row | Compound | fluorescence enhancement after reaction with MBP-dC10α [1] | background (latent) fluorescence of the unreacted fluorogen [1] | reaction with MBP-dC10α test protein (time-dependent fluorescence) ([2]; 25 μM fluorogen, 25 μM MBP-dC10α) | reaction with GSH (time-dependent fluorescence) ([3]; 5 mM GSH) | stability and selectivity of the fluorogen ([3]; in presence of GSH vs MBP-dC10α) | localisation of fluorescence in transfected cells ([4]; HEK293T expressing histone H2B-dC10α, 10 μM, 45 min) | fluorescence in cells transfected with histone-H2B-dC10α [4] | fluorescence in negative-control cells (pcDNA / mock DNA) [4] | emission maximum of labelled MBP-dC10α [5] [nm] | kinetic selectivity for MBP-dC10α relative to GSH ([3]; 25 μM MBP vs 5 mM GSH) | dependence of fluorescence increase on MBP-dC10α concentration ([1]; 25 μM YC23, 2.5-25 μM MBP-dC10α) | fluorescence after incubation with other thiols relative to MBP-dC10α [6] [%] | time required to approach maximum fluorescence ([2]; 25 μM fluorogen + 25 μM MBP-dC10α, 37° C.) | fluorescence increase after 15 min ([2]; 25 μM fluorogen + 25 μM MBP-dC10α, 37° C., 15 min) [fold] | fluorescence of labelled purified test protein under denaturing conditions ([7]; 95° C. for 15 min, then SDS-PAGE) | concentration sufficient to label the test protein in cell lysate ([7]; soluble bacterial lysate, 0.5 mM TCEP, overnight) [µM] | effect on cell viability [8] | excitation maximum of labelled MBP-dC10α [5] [nm]
1 | COC1=CC(=O)N(c2cc(Nc3ccc4n3[B-](F)(F)[N+]3=C(N(C)c5ccccc5)C=CC3=C4c3ccccc3)cc(N3C(=O)C=C(OC)C3=O)c2)C1=O [YC29, 7-((3,5-bis(3-methoxy-2,5-dioxo-2,5-dihydro-1H-pyrrol-1-yl)phenyl)amino)-5,5-difluoro-3-(methyl(phenyl)amino)-10-phenyl-5H-dipyrrolo[1,2-c:2′,1′-f][1,3,2]diazaborinin-4-ium-5-uide] | 308 fold | efficiently quenched | reacted readily | did not show any detectable reaction | excellent stability and selectivity | localized in the nucleus | Intense red fluorescence | no red fluorescence was detected | 630 | – | – | – | – | – | – | – | – | –
2 | COC(=O)CSC1=[N+]2C(=C(c3ccccc3)c3ccc(Nc4cc(N5C(=O)C=C(OC)C5=O)cc(N5C(=O)C=C(OC)C5=O)c4)n3[B-]2(F)F)C=C1 [YC28, 7-((3,5-bis(3-methoxy-2,5-dioxo-2,5-dihydro-1H-pyrrol-1-yl)phenyl)amino)-5,5-difluoro-3-((2-methoxy-2-oxoethyl)thio)-10-phenyl-5H-dipyrrolo[1,2-c:2′,1′-f][1,3,2]diazaborinin-4-ium-5-uide] | 579 fold | effectively quenched | – | – | – | – | – | – | 592 | acceptable but not excellent | – | – | – | – | – | – | – | –
3 | COC1=CC(=O)N(c2ccc(C3=C4C(C)=CC(C)=[N+]4[B-](F)(F)n4c(C)cc(C)c43)c(N3C(=O)C=C(OC)C3=O)c2)C1=O [YC23, 10-(2,4-Bis(3-methoxy-2,5-dioxo-2,5-dihydro-1H-pyrrol-1-yl)phenyl)-5,5-difluoro-1,3,7,9-tetramethyl-5H-dipyrrolo[1,2-c:2′,1′-f][1,3,2]diazaborinin-4-ium-5-uide] | ca. 800 fold | negligible background fluorescence | – | – | – | – | strongly green fluorescent | negligible fluorescence | 525 | – | concentration-dependent | < 10 | more than 4 hours | 10 | maintained its fluorescence | ≤ 10 | negligible effect on cell viability | 510
